Results on 5 molecules are retold here after publication PMC5159881 (Nature Communications, 2016).

One data set concerns LNCaP-MDV3100-R cells. Description: SRB cell growth assay, LNCaP-MDV3100-R. Conditions: 72 h, 20 μM. Format: cell-based, human.
A further data set deals with VCaP xenografts. Nature of the data set: VCaP subcutaneous xenograft in BALB/c-nude mice. Format: in vivo, mouse. Conditions: 2 mg/kg AIL or 10 mg/kg MDV, i.p.
Data set [1] deals with 22RV1-luc orthotopic xenografts. Description: Orthotopic castration-resistant prostate cancer model (22RV1-luc, castrated mice). Format: in vivo, mouse. Conditions: i.p. once per day, 28 days, AIL 2 mg kg^−1 (95% CI 70–95%), MDV 10 mg kg^−1 (95% CI 0–36%).
Description: (d) Male BALB/c-nude mice were anaesthetized, and the dorsolateral prostate was injected with 22RV1-luc cells in matrigel. […] Tumours were imaged every week to determine local tumour growth and evidence of tumour cell dissemination. Representative images of three mice per group were illustrated (n=5). (e) After 28 days, mice were killed and local tumours and viscera of the mice were imaged to determine tumour growth and evidence of tumour cell dissemination.
For orthotopic castration-resistant prostate cancer xenografts, male BALB/c-nude mice (8–9 weeks of age) were anaesthetized using 150 mg kg^−1 2, 2, 2-tribromethanol plus 350 mg kg^−1 tert-amyl alcohol and then 5 × 10^5 22RV1-luc cells suspended in 30 μl 50% matrigel were surgically injected into the dorsolateral prostate lobes. One week after injection, the tumour-bearing mice were castrated and randomly assigned to three groups. […] Prostate tumour growth and local metastasis were monitored weekly using the IVIS Imaging System (Xenogen Corporation, Alameda, CA). Images and measurements of bioluminescent signals were acquired and analysed using Living Image and Xenogen software[52].
The test system of the next data set is LNCaP cells. Description: SRB cell growth assay, LNCaP. Conditions: androgen-starved LNCaP, 0.1 nM R1881, 96 h; 10 μM BIC, 10 μM MDV, 0.1-0.4 μM AIL.
For another data set, the system named is c4-2b cells. Nature of the data set: SRB cell growth assay, c4-2b. The conditions noted are these: R1881, 96 h, 10 μM.
A further data set has as its system 22RV1 cells. Description: SRB cell growth assay, 22RV1. Conditions: 22RV1, R1881, 96 h, 10 μM.
The subject of a further data set is PSA mRNA. Description: Quantitative-PCR of PSA mRNA in 22RV1 cells. Conditions: 12 h.
For the next data set, the system named is AR protein. Nature of the data set: Western blotting of AR protein level in PCa cell lines. Format: cell-based, human. The conditions noted are these: LNCaP, 22RV1, LNCaP-MDV3100-R and VCaP cell lines (CEL: LNCaP and 22RV1, 12 h). An excerpt:
Scale bars, 10 μm. […] Scale bars, 20 μm.

The test system of another data set is HSP90 and HSP70. Description: Western blotting of HSP90 and HSP70 protein levels in LNCaP and 22RV1 cells. Conditions: 12 h. Format: cell-based, human.
The next data set deals with 22RV1 xenografts. Description: 22RV1 subcutaneous xenograft in BALB/c-nude mice. Format: in vivo, mouse. Conditions: 10 mg kg^−1 per day BIC or 2 mg kg^−1 per day AIL, i.p.
In another data set the test system is LNCaP xenografts. Description: LNCaP subcutaneous xenograft in BALB/c-nude mice. Conditions: 10 mg kg^−1 per day BIC or 2 mg kg^−1 per day AIL, i.p. Format: in vivo, mouse.
Another data set is described as follows: in vivo. Conditions: rat; for half-life: plasma. How it is done:
Pharmacokinetic studies in vivo[37] and CYP-associated metabolic studies in vitro[56] were performed using the method reported previously in our laboratory. […] The incubation system, sample preparation and chromatography conditions are as described previously.
A simple and sensitive method for the determination of AIL in plasma was developed, using high-performance liquid chromatography-tandem mass spectrometry (HPLC-MS/MS). Brusatol was used as an internal standard. […] The details of this HPLC-MS/MS method and sample preparation are described in our previous study.
The statistical analysis was performed by SPSS 22.0 software. The differences between control group and experimental groups were determined by one-way analysis of variance. Since treatment and time course was investigated, two-way analysis of variance followed by post hoc test was also applied. Data were expressed as mean and s.d., and P<0.05 was considered significant. Pharmacokinetic parameters were calculated by WinNonlin software version 5.2.1 (Pharsight Corporation, Mountain View, USA) based on noncompartmental analysis. […]
Pharmacokinetic study of ailanthone in rats
Sprague-Dawley rats (purchased from Shanghai SLAC laboratory animal Co. Ltd., Shanghai, China) were fasted for 12 h with free access to water prior to the pharmacokinetic study. The rats were randomized into two groups for oral administration (5mg/kg) and intravenous injection (1mg/kg). Blood samples were collected from the orbital plexus into heparinized centrifuge tubes at fifteen different time points between 5 min to 36 h for the oral administration group and nine time points between 5 min to 6 h for the intravenous one. The pharmacokinetic parameters were calculated by WinNonlin software version 5.2.1 based on noncompartmental analysis. Oral bioavailability was calculated as F (%) = AUC0-∞(p.o.) / AUC0-∞(i.v.) × Dose (i.v.) / Dose (p.o.). […]
Supplementary Figure 9C). […]

The mark [2] stands for this setting: Sprague-Dawley, in vivo, iv, 1 mg/kg.
Where [3] appears, read: Sprague-Dawley, in vivo, po, 5 mg/kg.

Where “and” joins values, the source holds several entries; their conditions need not be identical. Equal entries are not always repeated.

Description for LNCaP xenografts: (§1) (a–c) 22RV1 (a), LNCaP (b) and VCaP (c) cells suspended in 0.1 ml PBS (22RV1) or matrigel (LNCaP, VCaP) were injected into the right flank of BALB/c-nude mice. Androgen containing blocks were subcutaneously inserted into each mouse in the LNCaP and VCaP xenograft models. […] The control group was injected with DMSO. Tumour volume and the mouse body weight were measured twice per week.
(§2) BALB/c-nude mice (6–8-weekold, male) were purchased from the Sino-British Sippr/BK Lab Animal Co., Ltd (Shanghai, China) and maintained under pathogen-free conditions. The animal use protocol was approved by the Institutional Animal Care and Use Committee of East China Normal University. The 22RV1, LNCaP and VCaP xenograft tumour models were developed by injecting 3 × 10^6 22RV1 cells or 5 × 10^6 LNCaP or VCaP cells in suspension into the right flank of a BALB/c-nude mouse; cells were suspended in 100 μl PBS or 50% matrigel (LNCaP and VCaP), respectively. Specifically for LNCaP and VCaP cells, continuous release testosterone pellets (15 mg testosterone per pellet, Sigma-Aldrich) were implanted subcutaneously to stimulate the growth of LNCaP and VCaP xenografts. […] The tumour volume and mouse body weight were measured twice a week. The tumour volume was calculated using the following equation: tumour volume (V)=length × width × width × 0.52. […]
(§3) Tumor volume and the mouse body weight were measured once a week. […]
Description for LNCaP-MDV3100-R cells: Cell growth was determined by SRB assay.
the SRB assay (n = 5). The half maximal inhibitory concentration (IC50) was calculated using GraphPad Prism 5.0 (GraphPad, San Diego, CA).
Description for PSA mRNA: Total RNA was extracted using TRIzol (Takara, Japan) according to the manufacturer's instructions. One microgram of total RNA was used for complementary DNA synthesis using a cDNA reverse transcription kit (Takara, Japan). Real-time PCR was performed in triplicate using gene-specific primers on a Stratagene Mx3005P PCR system (Agilent Technologies) machine. The mRNA expression levels were normalized to β-actin expression or GAPDH.
Description for VCaP xenografts: as §1, §2, §3

As to `CNC(=O)c1ccc(N2C(=S)N(c3ccc(C#N)c(C(F)(F)F)c3)C(=O)C2(C)C)cc1F` [MDV, MDV3100], the “cell growth (SRB)” value is “totally resistant” in the data set on LNCaP-MDV3100-R cells, “effectively blocked cell growth” in the data set on LNCaP cells, “could not significantly inhibit cell growth” in the data set on c4-2b cells and “could not significantly inhibit cell growth” in the data set with 22RV1 cells. The response of xenografts entry in the data set with VCaP xenografts is on record as “still responded”. The “reduction of tumour volume” value in data set [1] stood at 15%. Also, in the data set with PSA mRNA (22RV1, 10 nM R1881, 10 μM MDV or 0.2 μM AIL), the “PSA mRNA level in the presence of R1881” value is given as “decreased”. The “PSA mRNA level in the absence of R1881” value in the data set with PSA mRNA (22RV1, no R1881, 10 μM MDV or 0.2 μM AIL) is “no effect”.

Regarding `CC1=C(O)C(=O)C=C2C1=CC=C1[C@@]2(C)CC[C@@]2(C)[C@@H]3C[C@](C)(C(=O)O)CC[C@]3(C)CC[C@]12C` [CEL, Celastrol], the AR protein level result in the data set on AR protein is on record as “downregulated the protein level of AR”.

With `C=CCNC1=C2C[C@@H](C)C[C@H](OC)[C@H](O)[C@@H](C)/C=C(\C)[C@H](OC(N)=O)[C@@H](OC)/C=C\C=C(/C)C(=O)NC(=CC1=O)C2=O` [17-AAG], the “HSP90 and HSP70 protein levels” value in the data set on HSP90 and HSP70 is on record as “induced upregulation”.

With `CC(O)(CS(=O)(=O)c1ccc(F)cc1)C(=O)Nc1ccc(C#N)c(C(F)(F)F)c1` (centres unmarked) [BIC, bicalutamide], the “cell growth (SRB)” value in the data set on LNCaP-MDV3100-R cells is recorded as “totally resistant”; in the data set with LNCaP cells, “effectively blocked cell growth”; in the data set on c4-2b cells, “could not significantly inhibit cell growth”; in the data set with 22RV1 cells, “could not significantly inhibit cell growth”. The tumour growth entry with 22RV1 xenografts is “resistant”. Moreover, the tumour volume result in the data set with LNCaP xenografts is “significantly reduced the tumour volume”.

`C=C1[C@@H](O)[C@]2(O)OC[C@]34[C@H]2[C@@]2(C)[C@H](O)C(=O)C=C(C)[C@@H]2C[C@H]3OC(=O)C[C@@H]14` [AIL, Ailanthone] displayed a bioavailability in the data set “in vivo” (Sprague-Dawley, in vivo) of 25.7%. Further, in the data set “in vivo” (setting [2]), the total exposure AUC(0-inf) is 1030 ng·h/mL; the AUC(0-t) was 965 ng·h/mL; the C0 is 1650 ng/mL and 4.39 µM. Besides, in “in vivo” (setting [3]), the total exposure AUC(0-inf) is 1320 ng·h/mL; the area under the curve AUC(0-t) is 1120 ng·h/mL; the maximum concentration (Cmax) was 87 ng/mL and 231 nM; the Tmax is 0.388 h. Also, the half-life in the data set “in vivo” (iv, i.v. 1 mg kg^−1, n=6, mean±s.d.) worked out at 1.89 ± 0.66 h. Moreover, the half-life in “in vivo” (po, p.o. 5 mg kg^−1, n=6, mean±s.d.) came to 12.2 ± 2.6 h.
